Assay results as given in the supplement of paper PMC5844555.

Tests used:
Experiment in all cases: 3' UTR reporter interaction score (median-centred robust z-score of log2 firefly/Renilla activity); higher = less repression of the 3' UTR reporter
Settings in all cases: HEK293T; 48 h
HRAS = test system: HRAS
Outline: (§1)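 HEK293T cells (10,000/well, 96-well plates) were co-transfected using DharmaFECT Duo with 100 ng firefly luc2P reporter carrying the gene's 3' UTR, 20 ng Renilla pRL-TK control and 2.5 pmol miRNA mimic. Dual-luciferase activities were read 48 h post-transfection. The interaction score is the log-transformed firefly/Renilla ratio as a per-plate robust z-score (median, median absolute deviation), median-centred per miRNA and averaged over at least two independent screens; more negative indicates interaction.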

MYCN = test system: MYCN
Outline: as §1

MYC = test system: MYC
Outline: as §1

EZH2 = test system: EZH2
Outline: as §1

NOTCH1 = test system: NOTCH1
Outline: as §1

FBXW7 = test system: FBXW7
Outline: as §1

MYT1L = test system: MYT1L
Outline: as §1

PHOX2B = test system: PHOX2B
Outline: as §1

TP53 = test system: TP53
Outline: as §1

RB1 = test system: RB1
Outline: as §1

ZEB2 = test system: ZEB2
Outline: as §1

MYB = test system: MYB
Outline: as §1

PHF6 = test system: PHF6
Outline: as §1

BRCA2 = test system: BRCA2
Outline: as §1

| Sequence | 3' UTR reporter interaction score (HRAS) | 3' UTR reporter interaction score (MYCN) | 3' UTR reporter interaction score (MYC) | 3' UTR reporter interaction score (EZH2) | 3' UTR reporter interaction score (NOTCH1) | 3' UTR reporter interaction score (FBXW7) | 3' UTR reporter interaction score (MYT1L) | 3' UTR reporter interaction score (PHOX2B) | 3' UTR reporter interaction score (TP53) | 3' UTR reporter interaction score (RB1) | 3' UTR reporter interaction score (ZEB2) | 3' UTR reporter interaction score (MYB) | 3' UTR reporter interaction score (PHF6) | 3' UTR reporter interaction score (BRCA2) |
| --- | --- | --- | --- | --- | --- | --- | --- | --- | --- | --- | --- | --- | --- | --- |
| GACACGGGCGACAGCUGCGGCCC | 0.13 | -0.202 | -0.271 | -0.294 | -0.641 | -0.302 | -0.281 | -0.471 | 0.243 | 1.37 | 0.917 | 0.262 | 1.16 | -0.257 |
| GACCUGGACAUGUUUGUGCCCAGU | -0.318 | 0.492 | -0.104 | -0.0513 | -0.107 | 0.534 | 0.464 | 0.605 | -0.242 | -0.469 | 2.18 | -0.217 | 0.792 | 0.214 |
| GAGCCAGUUGGACAGGAGC | 0.00377 | 0.298 | -0.0272 | -0.353 | -0.874 | 0.107 | 0.521 | 0.261 | 1 | -0.775 | -0.65 | 0.363 | -1.97 | -1.34 |
| GAGCUUAUUCAUAAAAGUGCAG | 0.562 | 0.314 | 1.07 | 0.564 | -0.458 | -1.75 | -2.82 | -0.299 | -1.36 | 2.05 | -1.29 | 0.663 | -0.038 | 0.117 |
| GAGGUUGUCCGUGGUGAGUUCG | -0.768 | -0.211 | -2.33 | -0.239 | 0.138 | -1.94 | 0.00527 | 0.511 | -0.45 | -0.327 | 0.323 | 0.0834 | -0.125 | -0.325 |
| GAGUGCCUUCUUUUGGAGCGU | -0.294 | 0.414 | -0.339 | 0.0213 | -0.567 | 0.805 | 1.25 | -3.88 | -0.254 | 0.093 | -0.377 | -0.982 | 2.96 | -0.0488 |
| GAUGAGCUCAUUGUAAUAUG | 0.049 | 0.201 | -0.384 | 0.284 | -0.218 | 0.747 | 1.26 | -0.674 | 0.29 | 0.134 | -1.1 | 0.0611 | -0.609 | -0.641 |
| GAUUGCUCUGCGUGCGGAAUCGAC | -0.851 | -0.19 | -2.18 | 0.471 | -0.0878 | -0.34 | -1.1 | 0.972 | -0.352 | 0.524 | -0.205 | -0.474 | 0.0123 | 0.00588 |
| GCAAAGCACACGGCCUGCAGAGA | -0.313 | -0.217 | 0.499 | 0.138 | 0.357 | 0.141 | -0.692 | -0.597 | -0.0423 | -1.65 | 0.307 | 1.11 | 1.65 | 0.0737 |
